For orientation: inhibition means how much of the control response was suppressed. Low readings indicate a weak effect, high ones a strong effect. The term IC50 denotes the concentration needed to halve the response being measured.

Substitutions are numbered along the chain they refer to.

Holding throughout (format): cell-based
Assay [1] deals with T1, TMEM16A (Mus musculus, UniProt Q8BHY3, R535A).
T1 construct: gene Ano1; mouse TMEM16A (NM_178642.5)
T1 sequence (Q8BHY3 1-960 R535A): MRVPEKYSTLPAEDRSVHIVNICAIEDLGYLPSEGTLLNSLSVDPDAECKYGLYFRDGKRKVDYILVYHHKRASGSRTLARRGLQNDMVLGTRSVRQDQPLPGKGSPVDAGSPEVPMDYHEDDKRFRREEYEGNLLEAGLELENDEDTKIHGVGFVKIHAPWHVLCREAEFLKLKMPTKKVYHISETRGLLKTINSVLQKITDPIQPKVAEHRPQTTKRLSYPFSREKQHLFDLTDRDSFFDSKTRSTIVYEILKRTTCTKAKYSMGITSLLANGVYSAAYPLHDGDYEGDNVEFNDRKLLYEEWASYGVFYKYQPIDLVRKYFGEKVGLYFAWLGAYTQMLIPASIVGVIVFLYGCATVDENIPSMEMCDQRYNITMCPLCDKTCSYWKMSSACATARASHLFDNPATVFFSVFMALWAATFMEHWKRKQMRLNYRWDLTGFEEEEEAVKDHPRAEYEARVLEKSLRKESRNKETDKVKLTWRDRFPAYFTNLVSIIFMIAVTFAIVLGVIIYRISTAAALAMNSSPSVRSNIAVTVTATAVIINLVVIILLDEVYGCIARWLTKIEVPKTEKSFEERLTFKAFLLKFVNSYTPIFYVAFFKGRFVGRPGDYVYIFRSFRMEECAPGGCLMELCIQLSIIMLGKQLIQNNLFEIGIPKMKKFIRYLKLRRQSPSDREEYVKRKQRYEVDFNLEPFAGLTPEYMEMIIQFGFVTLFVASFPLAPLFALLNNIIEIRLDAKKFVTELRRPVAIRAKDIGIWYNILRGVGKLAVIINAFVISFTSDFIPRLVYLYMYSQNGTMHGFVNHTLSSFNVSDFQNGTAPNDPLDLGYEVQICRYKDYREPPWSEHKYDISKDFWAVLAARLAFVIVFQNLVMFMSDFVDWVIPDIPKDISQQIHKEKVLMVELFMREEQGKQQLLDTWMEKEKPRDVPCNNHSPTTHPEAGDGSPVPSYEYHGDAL
Kind of assay: whole-cell patch clamp of mutant channel in HEK293T cells, […] TF. The settings on record: HEK-293T.

In assay [2] the target is T2, TMEM16A (Mus musculus, UniProt Q8BHY3, K603A).
T2 construct: gene Ano1; mouse TMEM16A (NM_178642.5)
T2 sequence (Q8BHY3 1-960 K603A): T1 sequence (Q8BHY3 1-960 R535A) with A535R, K603A
The description is as above. The settings on record: HEK-293T.

Assay [3] addresses T3, TMEM16A (Mus musculus, UniProt Q8BHY3).
T3 construct: gene Ano1; mouse TMEM16A (NM_178642.5)
T3 sequence (Q8BHY3 1-960): T1 sequence (Q8BHY3 1-960 R535A) with A535R
Kind of assay: whole-cell patch clamp, recombinant channel in HEK293T cells; supported by mutagenesis. In general terms: Patch clamp records ionic current or voltage across a cell membrane.

The target in assay [4] is T4, TMEM16A (Mus musculus, UniProt Q8BHY3, T539A).
T4 construct: gene Ano1; mouse TMEM16A (NM_178642.5)
T4 sequence (Q8BHY3 1-960 T539A): T1 sequence (Q8BHY3 1-960 R535A) with A535R, T539A
Kind of assay: whole-cell patch clamp of mutant channel in HEK293T cells, […] TF. The conditions noted are these: HEK-293T.

Regarding `O=c1c(O)cc([C@H]2Oc3cc(O)cc(O)c3C[C@H]2O)cc2c([C@H]3Oc4cc(O)cc(O)c4C[C@H]3O)cc(O)c(O)c12` [TF, theaflavin], the inhibition at 10 µM came to 71% against TMEM16A [1], 54% against TMEM16A [2] and 51% at TMEM16A [4]. Also, the IC50 on TMEM16A [3] came to 750 ± 130 nM.

(Values after PMC8368026, “Theaflavin binds to a druggable pocket of TMEM16A channel and inhibits lung adenocarcinoma cell viability” (The Journal of Biological Chemistry, 2021).)
